Measurements taken from ChEMBL document CHEMBL5233244, “Therapeutic potential of targeting α/β-Hydrolase domain-containing 6 (ABHD6)” (Eur J Med Chem, 2020).

How the values were obtained:
[1] = target: T1, Monoacylglycerol lipase ABHD6 (Mus musculus, UniProt Q8R2Y0); experiment: Inhibition of ABHD6 in mouse brain membrane using FP-biotin as substrate incubated for 1 hr by LC-MS based ABPP-MudPIT analysis; type: cell membranes
T1 sequence (Q8R2Y0 whole entry): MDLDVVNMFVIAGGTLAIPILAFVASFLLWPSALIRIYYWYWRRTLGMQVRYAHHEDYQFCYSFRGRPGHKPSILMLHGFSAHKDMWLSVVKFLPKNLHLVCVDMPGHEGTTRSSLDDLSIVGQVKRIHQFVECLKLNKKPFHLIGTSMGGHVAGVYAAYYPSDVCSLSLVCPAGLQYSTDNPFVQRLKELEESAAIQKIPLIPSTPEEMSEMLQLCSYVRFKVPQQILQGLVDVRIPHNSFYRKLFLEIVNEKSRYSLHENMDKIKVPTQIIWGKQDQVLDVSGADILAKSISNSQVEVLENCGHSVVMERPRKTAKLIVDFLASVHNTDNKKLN

[2] = target: T1, Monoacylglycerol lipase ABHD6; experiment: Inhibition of ABHD6 in mouse brain membrane using HT-01 probe as substrate incubated for 30 mins by gel based competitive ABPP assay; type: cell membranes
[3] = target: T2, Monoacylglycerol lipase ABHD6 (Mus musculus) (UniProt Q8R2Y0); experiment: Inhibition of ABHD6 in mouse brain membrane using FP-biotin as substrate at 10 uM incubated for 1 hr by LC-MS based ABPP-MudPIT analysis; type: cell membranes
T2 sequence (whole entry): T1 sequence (Q8R2Y0 whole entry)

Monoglyceride lipase = target: T3, Monoglyceride lipase (Mus musculus, UniProt O35678); experiment: Inhibition of mouse MAGL expressed in COS-7 cells using 2-[3H]AG as substrate incubated for 30 mins by liquid scintillation analysis; type: cell-based
T3 sequence (O35678 whole entry): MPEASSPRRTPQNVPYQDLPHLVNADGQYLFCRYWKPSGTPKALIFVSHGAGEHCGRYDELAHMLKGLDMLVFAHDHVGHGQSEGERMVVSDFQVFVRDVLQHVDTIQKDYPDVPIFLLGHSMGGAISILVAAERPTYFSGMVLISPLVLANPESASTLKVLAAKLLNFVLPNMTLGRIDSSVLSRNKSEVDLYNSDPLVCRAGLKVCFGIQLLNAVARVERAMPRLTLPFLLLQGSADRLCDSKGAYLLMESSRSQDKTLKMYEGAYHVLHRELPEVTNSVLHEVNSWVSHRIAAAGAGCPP

[4] = target: T4, Fatty-acid amide hydrolase 1 (Mus musculus, UniProt O08914); experiment: Inhibition of mouse FAAH expressed in COS-7 cells using [3H]AEA as substrate incubated for 30 mins by liquid scintillation analysis; type: cell-based
T4 sequence (O08914 whole entry): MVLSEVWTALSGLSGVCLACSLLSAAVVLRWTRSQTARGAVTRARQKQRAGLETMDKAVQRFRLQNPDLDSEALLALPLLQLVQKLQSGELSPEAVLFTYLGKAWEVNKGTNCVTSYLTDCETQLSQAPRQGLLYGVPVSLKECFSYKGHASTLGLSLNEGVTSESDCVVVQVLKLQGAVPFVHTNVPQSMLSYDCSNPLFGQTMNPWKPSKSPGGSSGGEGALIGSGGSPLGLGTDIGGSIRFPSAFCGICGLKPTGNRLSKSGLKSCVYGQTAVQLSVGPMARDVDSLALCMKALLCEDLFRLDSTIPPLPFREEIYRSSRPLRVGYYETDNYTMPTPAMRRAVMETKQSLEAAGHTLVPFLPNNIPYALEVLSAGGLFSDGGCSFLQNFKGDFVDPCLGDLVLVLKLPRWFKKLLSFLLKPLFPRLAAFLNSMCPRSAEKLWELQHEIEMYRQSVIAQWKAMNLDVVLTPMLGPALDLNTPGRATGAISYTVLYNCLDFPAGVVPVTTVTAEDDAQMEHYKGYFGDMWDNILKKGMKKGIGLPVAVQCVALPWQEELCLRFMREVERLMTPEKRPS

[5] = target: T1, Monoacylglycerol lipase ABHD6; experiment: Inhibition of mouse ABHD6 expressed in COS-7 cells using 2-[3H]AG as substrate incubated for 30 mins by liquid scintillation analysis; type: cell-based
[6] = target: T2, Monoacylglycerol lipase ABHD6 (Mus musculus); experiment: Inhibition of ABHD6 in mouse Primary neuron cells using 2-[3H]AG as substrate at 30 uM incubated for 30 mins by liquid scintillation analysis; type: cell-based
[7] = target: T5, Fatty-acid amide hydrolase 1 (Mus musculus) (UniProt O08914); experiment: Inhibition of FAAH in mouse Primary neuron cells using [3H]AEA as substrate at 30 uM incubated for 30 mins by liquid scintillation analysis; type: cell-based
T5 sequence (whole entry): T4 sequence (O08914 whole entry)

[8] = target: T6, Monoacylglycerol lipase ABHD6 (Homo sapiens, UniProt Q9BV23); experiment: Inhibition of human recombinant ABHD6
T6 sequence (Q9BV23 whole entry): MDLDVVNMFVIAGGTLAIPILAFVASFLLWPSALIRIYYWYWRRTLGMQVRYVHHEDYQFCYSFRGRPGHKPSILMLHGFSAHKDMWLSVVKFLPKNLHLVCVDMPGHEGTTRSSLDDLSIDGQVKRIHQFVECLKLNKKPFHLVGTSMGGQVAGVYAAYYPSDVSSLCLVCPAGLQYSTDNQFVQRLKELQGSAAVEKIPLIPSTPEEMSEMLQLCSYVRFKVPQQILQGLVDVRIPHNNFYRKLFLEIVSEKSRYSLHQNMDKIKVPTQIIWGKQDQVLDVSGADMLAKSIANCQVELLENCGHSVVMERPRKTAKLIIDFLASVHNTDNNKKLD

[9] = target: T6, Monoacylglycerol lipase ABHD6; experiment: Inhibition of ABHD6 (unknown origin)

`CN(Cc1cccc(-c2ccccc2)c1)C(=O)Oc1ccc(-c2ccc(C(N)=O)cc2)cc1` gave an IC50 [1] of 430 nM.

Molecule `CC(C)(C)OC(=O)N1CCN(C(=O)n2cc(-c3ccc(OC(F)(F)F)cc3)nn2)C(c2ccccc2)C1` (stereo not given) has an IC50 [2] of 20 nM.

For `CN(Cc1cccc(-c2ccncc2)c1)C(=O)Oc1ccc(-c2ccc(C(N)=O)cc2)cc1`, the inhibition [3] was 90%.

`CC/C=C\C/C=C\C/C=C\CCCCCCCC(=O)OCC1CO1` (stereo not given) was tested, and the IC50 (Monoglyceride lipase) was 270000 nM, the IC50 [4] was 900 nM and the IC50 [5] was 800 nM.

Work on `CCCCCC/C=C\CCCCCCCC(=O)OCC1CO1` (stereo not given) yielded an IC50 [4] of 4000 nM, an inhibition [6] of 30% and an IC50 [5] of 2400 nM. It also gave an inhibition [7] of 60%.

`C#CCO[C@@H]1CC[C@H](Cc2ccccc2)N(C(=O)n2ncc(C(O)(c3ccc(F)cc3)c3ccc(F)cc3)n2)C1` gave an IC50 [8] of 2.8 nM and an IC50 [2] of 126 nM.

With `CC(C)(C)OC(=O)N1CCN(C(=O)n2cc(-c3ccc(OC(F)(F)F)cc3)nn2)C(Cc2ccccc2)C1` (stereo not given) the IC50 [8] was 3.6 nM and the IC50 [2] was 79 nM.

For `COC(=O)[C@]1(C)CC[C@]2(C)CC[C@]3(C)C4=CC=C5C(=CC(=O)C(O)=C5C)[C@]4(C)CC[C@@]3(C)[C@@H]2C1` [PRISTIMERIN], the IC50 [9] was 1300 nM.
